The assay has as its target T1, human full-length HSP90 (Homo sapiens, UniProt P08238).
T1 construct: E. coli expressed human full-length HSP90 protein, purified >95%; made in house; host or cells: E. coli
Kind of assay: Fluorescence polarization assay (competitive displacement of fluorescein-labelled probe from HSP90). Type of assay: binding. The note with it: activity range A or B. An excerpt: Fluorescence Polarization Assay
Fluorescence polarization {also known as fluorescence anisotropy} measures the rotation of a fluorescing species in solution, where the larger molecule the more polarized the fluorescence emission. When the fluorophore is excited with polarized light, the emitted light is also polarized. The molecular size is proportional to the polarization of the fluorescence emission.
The fluoroscein-labelled probe—
binds to HSP90 {full-length human, full-length yeast or N-terminal domain HSP90} and the anisotropy {rotation of the probe:protein complex} is measured.
Test compound is added to the assay plate, left to equilibrate and the anisotropy measured again. Any change in anisotropy is due to competitive binding of compound to HSP90, thereby releasing probe.
Chemicals are of the highest purity commercially available and all aqueous solutions are made up in AR water. • 1) Costar 96-well black assay plate #3915 • 2) Assay buffer of (a) 100 mM Tris pH7.4; (b) 20 mM KCl; (c) 6 mM MgCl2. Stored at room temperature. • 3) BSA (bovine serum albumen) 10 mg/ml (New England Biolabs # B9001S) • 4) 20 mM probe in 100% DMSO stock concentration. Stored in the dark at RT. Working concentration is 200 nM diluted in AR water and stored at 4° C., Final concentration in assay 80 nM. • 5) E. coli expressed human full-length HSP90 protein, purified >95% (see, e.g., Panaretou et al., 1998) and stored in 50 μL aliquots at −80° C.
• 1) Add 100 μl 1× buffer to wells 11A and 12A (=FP BLNK) • 2) Prepare assay mix—all reagents are kept on ice with a lid on the bucket as the probe is light-sensitive.
• 3) Aliquot 100 μl assay mix to all other wells • 4) Seal plate and leave in dark at room temp for 20 minutes to equilibrate Compound Dilution Plate—1×3 dilution series • 1) In a clear 96-well v-bottom plate—{# VWR 007/008/257} add 10 μl 100% DMSO to wells B1 to H11 • 2) To wells A1 to A11 add 17.5 μl 100% DMSO • 3) Add 2.5 μl cpd to A1. This gives 2.5 mM {50×} stock cpd—assuming cpds 20 mM. • 4) Repeat for wells A2 to A10. Control in columns 11 and 12. • 5) Transfer 5 μl from row A to row B—not column 12. Mix well. • 6) Transfer 5 μl from row B to row C. […] In column 11 {provides standard curve} only add compound B11-H11. Add 2 μl of 100 mM standard cpd to wells B12-H12 {is positive control} • 13) The Z′ factor is calculated from zero controls and positive wells. It typically gives a value of 0.7-0.9.
The compounds tested in the above assay were assigned to one of two activity ranges, namely A=<10 μM; B=>10 μM, and those assignments are reported above.
T1 sequence (P08238 whole entry): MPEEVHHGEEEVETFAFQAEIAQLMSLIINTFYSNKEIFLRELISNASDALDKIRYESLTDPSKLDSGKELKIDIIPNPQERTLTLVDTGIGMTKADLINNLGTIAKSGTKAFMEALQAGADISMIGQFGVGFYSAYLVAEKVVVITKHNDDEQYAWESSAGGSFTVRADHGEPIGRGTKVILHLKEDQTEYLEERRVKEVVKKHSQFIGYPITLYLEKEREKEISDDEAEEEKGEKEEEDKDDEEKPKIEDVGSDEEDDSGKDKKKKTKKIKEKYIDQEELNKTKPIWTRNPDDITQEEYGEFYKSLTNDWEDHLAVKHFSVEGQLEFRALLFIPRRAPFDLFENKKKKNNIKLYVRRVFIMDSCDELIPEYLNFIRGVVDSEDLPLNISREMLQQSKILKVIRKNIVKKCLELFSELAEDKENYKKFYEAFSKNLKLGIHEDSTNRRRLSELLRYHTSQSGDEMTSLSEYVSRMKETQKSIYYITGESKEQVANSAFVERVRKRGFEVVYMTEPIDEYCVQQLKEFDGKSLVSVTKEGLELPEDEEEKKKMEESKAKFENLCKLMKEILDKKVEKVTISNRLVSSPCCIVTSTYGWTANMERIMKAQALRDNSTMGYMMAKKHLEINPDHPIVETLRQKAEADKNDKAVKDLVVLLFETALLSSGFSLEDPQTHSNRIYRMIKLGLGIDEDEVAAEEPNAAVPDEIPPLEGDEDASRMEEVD
Molecule `CCNC(=O)c1cc2c(C(=NOC)c3ccc4c(c3)OCCN4C)nc(N)nc2s1` (mixture of isomers) [Example 1, 2-Amino-4-[methoxyimino-(4-methyl-3,4-dihydro-2H-benzo[1,4]oxazin-7-yl)-methyl]-thieno[2,3-d]pyrimidine-6-carboxylic acid ethylamide] gave an IC50 of under 10 µM. `CCNC(=O)c1cc2c(C(=NO)c3ccc4c(c3)OCCN4C)nc(N)nc2s1` (mixture of isomers) [Example 2, 2-Amino-4-[hydroxyimino-(4-methyl-3,4-dihydro-2H-benzo[1,4]oxazin-7-yl)-methyl]-thieno[2,3-d]pyrimidine-6-carboxylic acid ethylamide] had an IC50 of under 10 µM. With `CCNC(=O)c1cc2c(C(=NOCCN3CCCC3)c3ccc4c(c3)OCO4)nc(N)nc2s1` (mixture of isomers) [Example 28] the figure was under 10 µM; with `CCNC(=O)c1cc2c(C(=NOCCN3CCCC3=O)c3ccc4c(c3)OCO4)nc(N)nc2s1` (mixture of isomers) [Example 29], under 10 µM; with `CCNC(=O)c1cc2c(C(=NOCCN(CC)CC)c3cc4c(cc3Cl)OCO4)nc(N)nc2s1` (mixture of isomers) [Example 30], under 10 µM. With `CC(C)NC(=O)c1cc2c(C(=NOCCN3CCCC3=O)c3ccc4c(c3)OCO4)nc(N)nc2s1` (mixture of isomers) [Example 46], the IC50 was under 10 µM.

`CC(C)(C)NC(=O)c1cc2c(C(=NOCCN3CCCC3)c3ccc4c(c3)OCO4)nc(N)nc2s1` (mixture of isomers) [Example 54] yielded a concentration for half-maximal inhibition (IC50) of under 10 µM. Under `COCCNC(=O)c1cc2c(C(=NOCCN3CCCC3=O)c3ccc4c(c3)OCO4)nc(N)nc2s1` (mixture of isomers) [Example 57] stands under 10 µM.

For `CCNC(=O)c1cc2c(C(=NO)c3ccc4c(c3)OCO4)nc(N)nc2s1` [Example 3, 2-Amino-4-(benzo[1,3]dioxol-5-yl-hydroxyimino-methyl)-thieno[2,3-d]pyrimidine-6-carboxylic acid ethylamide], the concentration for half-maximal inhibition (IC50) is under 10 µM.

On to `CCOC(=O)c1cc2c(C(=NOC)c3ccc4c(c3)OCO4)nc(N)nc2s1` [Example 4, 2-Amino-4-(benzo[1,3]dioxol-5-yl-methoxyimino-methyl)-thieno[2,3-d]pyrimidine-6-carboxylic acid ethyl ester], for which the IC50 was under 10 µM.

Molecule `CCNC(=O)c1cc2c(C(=NO)c3ccccn3)nc(N)nc2s1` [Example 5] displayed a 50% inhibitory concentration (IC50) of under 10 µM. With `CCNC(=O)c1cc2c(C(=NO)c3cc4c(cc3Cl)OCO4)nc(N)nc2s1` [Example 6] the figure was under 10 µM; with `CCNC(=O)c1cc2c(C(=NO)c3cccnc3)nc(N)nc2s1` [Example 7], over 10 µM.

In turn, `CCNC(=O)c1cc2c(C(=NO)c3cccc(OC)c3)nc(N)nc2s1` [Example 9] displayed an IC50 of under 10 µM. As for `CCNC(=O)c1cc2c(C(=NO)c3ccc(Cl)cc3)nc(N)nc2s1` [Example 10], the IC50 was under 10 µM.

Take `CCNC(=O)c1cc2c(C(=NO)c3ccccc3Cl)nc(N)nc2s1` [Example 11]: the IC50 was over 10 µM. Under `CCNC(=O)c1cc2c(C(=NO)c3ccc(OC)cc3)nc(N)nc2s1` [Example 12] stands under 10 µM. `CCNC(=O)c1cc2c(C(=NO)c3cccc(Cl)c3)nc(N)nc2s1` [Example 13] yielded a 50% inhibitory concentration (IC50) of under 10 µM. With `CCNC(=O)c1cc2c(C(=NO)c3ccc4ccccc4c3)nc(N)nc2s1` [Example 14] the figure was under 10 µM; with `CCNC(=O)c1cc2c(C(=NO)c3ccc(OC)c(OC)c3)nc(N)nc2s1` [Example 15], under 10 µM.

`CCNC(=O)c1cc2c(C(=NO)c3ccc4c(c3)CCO4)nc(N)nc2s1` [Example 16] gave a half-inhibitory concentration (IC50) of under 10 µM. With `CCNC(=O)c1cc2c(C(=NO)c3ccco3)nc(N)nc2s1` [Example 17] the figure was under 10 µM. Under `CCNC(=O)c1cc2c(C(=NO)c3ccc4[nH]ccc4c3)nc(N)nc2s1` [Example 18] stands under 10 µM; under `CCNC(=O)c1cc2c(C(=NO)c3ccoc3)nc(N)nc2s1` [Example 19], under 10 µM.

The record behind these values is patent US20090054421A1, “Pyrimidothiophene Compounds Having HSP90 Inhibitory Activity” (Vernalis R & D Limited, priority 2005, published 2009).
